Experimental data: patent publication US8722895B2, “Prolyl hydroxylase inhibitors and method of use” (Akebia Therapeutics Inc., priority 2006, dated 2014)

Tests used:
EPO = test: Mouse Serum EPO Assay (mouse ischemic hindlimb study); assay type: in vivo; conditions: for EPO response: in vivo response, mouse serum EPO
Method: (§1) Mouse Ischemic Hindlimb Study
(§2) All animal work is conducted in accordance with the Guide for the Care and Use of Laboratory Animals (National Academy of Sciences; Copyright® 1996) and the Institutional Animal Care and Use Committee guidelines at Procter and Gamble Pharmaceuticals. We studied 9-10 week old male C57B1/6 mice from Charles River Laboratory (Portage, Mich.). The mice are orally dosed with vehicle (aqueous carbonate buffer, 50 mM; pH 9.0) or compound 1 in vehicle at 50 mg/kg or 100 mg/kg. The animals are dosed three times: day 1 at Sam and 5 pm, day 2 at 8 am. One hour after the first dose, unilateral arterial ligation is performed under anesthesia using isoflurane. The femoral artery is ligated proximal to the origin of the popliteal artery. The contralateral limb underwent a sham surgical procedure. Ligation is performed in an alternating fashion between right and left hindlimbs. Two hours after Sam dosing on day 2, we obtained blood by ventricular stick while the mice are anesthetized with isoflurane. Serum samples for EPO analysis are obtained using gel clot serum separation tubes. Heart, liver, and gastrocnemius muscles are harvested, snap-frozen in liquid nitrogen, and stored in −80° C. until use.
The mouse serum EPO is detected using Mouse Quantikine Erythropoietin ELISA kit from R&D Systems according to manufacturer's instructions.

HIF-1α = test: Mouse Tissue HIF Western Blot Analysis; assay type: in vivo; conditions: FIG. 1
Method: as §1, §2
Mouse Tissue HIF Western Blot Analysis
Tissues from mice stored at −80° C. are powdered with mortar and pestle chilled with liquid nitrogen. […]

## Cc1ccc(-c2ccc(C(=O)NCC(=O)O)c(O)c2)cc1 [[(3-Hydroxy-4′-methyl-biphenyl-4-carbonyl)-amino]-acetic acid]
EPO
  EPO response: yes

## Cc1ccc(-c2cnc(C(=O)NCC(=O)O)c(O)c2)cc1 [[(3-Hydroxy-5-(4-methylphenyl)pyridine-2-carbonyl)amino]-acetic acid]
EPO
  EPO response: yes

## COC(=O)CNC(=O)c1ncc(-c2ccccc2Cl)cc1O [{[5-(2-Chlorophenyl)-3-hydroxy-pyridine-2-carbonyl]-amino}-acetic acid methyl ester]
EPO
  EPO response: yes

## O=C(O)CNC(=O)c1ncc(-c2ccccc2Cl)cc1O [{[5-(2-Chlorophenyl)-3-hydroxypyridine-2-carbonyl]amino}-acetic acid]
EPO
  EPO response: yes

## COC(=O)CNC(=O)c1ncc(-c2cccc(Cl)c2)cc1O [{[5-(3-Chloro-phenyl)-3-hydroxy-pyridine-2-carbonyl]-amino}acetic acid methyl ester]
EPO
  EPO response: yes

## O=C(O)CNC(=O)c1ncc(-c2cccc(Cl)c2)cc1O [{[5-(3-Chlorophenyl)-3-hydroxypyridine-2-carbonyl]amino}-acetic acid]
EPO
  EPO response: yes
EPO; mouse serum after oral dosing, FIG. 2
  erythropoietin level versus vehicle in mouse serum: elevated
HIF-1α
  stabilization of HIF-1α in mouse liver (immunoblot of nuclear extracts): stabilization of HIF-1α

## N#Cc1ccc(-c2cnc(C(=O)NCC(=O)O)c(O)c2)cc1 [{[5-(4-Cyanophenyl)-3-hydroxypyridine-2-carbonyl]amino}-acetic acid]
EPO
  EPO response: yes

## {[5-(4-Chlorophenyl)-3-hydroxypyridine-2-carbonyl]amino}-acetic acid
EPO
  EPO response: yes
